From patent US12582654B2, “Cyano-substituted pyridine and cyano-substituted pyrimidine compound and preparation method therefor and application thereof” (BEIJING SCITECH-MQ PHARMACEUTICALS LIMITED, priority 2019, dated 2026)

Tests used:
[1] = biological target: FGFR4 kinase (Homo sapiens, UniProt P22455); assay: Inhibition of FGFR4 kinase activity (ULight-labeled JAK-1 peptide, EU665/EU615 reading); format: biochemical; conditions: FGFR4 kinase 3.85 nM, ATP 100 μM, enzymatic reaction 2 hours
Method: (§1) Assay of activity of small molecule compounds on inhibiting FGFR4 kinase and FGFR4 V550L mutant kinase. The assay method was as follows:
(§2) 1) Dilution of Compounds:
(§3) In a 96-well plate a, the compounds were serially diluted 3-fold with DMSO to form 11 concentrations, and the 12th concentration was pure DMSO (as a positive control); In a new 96-well plate b, the above solutions were diluted 25-fold with ultrapure water (DMSO concentration was 4%).
(§4) 2) Transferring Compounds to a 384-Well Plate:
(§5) The above solutions of compounds diluted with ultrapure water in the 96-well plate b were pipetted into corresponding wells of a 384-well plate.
(§6) 3) Adding 4× kinase solution: 2.5 μl of the above 4× kinase solutions were pipetted with a multi-channel pipette into corresponding reaction wells of the 384-well plate, and the mixture was mixed well and pre-reacted at room temperature for 5 minutes.
(§7) 4) Adding 2× substrate/ATP mixture: 5 μl of the above 2× substrate/ATP mixtures were pipetted with a multi-channel pipette into corresponding reaction wells of the 384-well plate.
(§8) 5) Negative control: negative control wells were set up in the 384-well plate by adding 2.5 μl of 4× substrate, 2.5 μl of 4× enzyme solution, 2.5 μl of 1× kinase Assay Buffer and 2.5 μl of ultrapure water containing 4% DMSO to each well.
(§9) 6) Centrifuging, mixing well, and reacting at room temperature in the dark for 2 hours.
(§10) 7) Terminating the Enzymatic Reaction:
(§11) 5 μl of the above 4× stop solutions were pipetted into corresponding wells of the 384-well plate, and the mixture was centrifuged, mixed well, and then reacted at room temperature for 5 minutes.
(§12) 8) Development of the Reaction:
(§13) 5 μl of the above 4× detection solutions were pipetted into corresponding wells of the 384-well plate, and the mixture was centrifuged, mixed well, and then reacted at room temperature for 1 hour.
(§14) 9) The 384-well plate was placed into a plate reader, and the signal was detected using the appropriate program.
(§15) 10) Analysis of IC50: Reading of well=10000*EU665 value/EU615 value Inhibition rate=(reading of positive control well−reading of assay well)/(reading of positive control well−reading of negative control well)*100%
(§16) The corresponding IC50 can be calculated by inputting the drug concentrations and corresponding inhibition rates into GraphPad Prism 5 and processing.
Assay Conditions for Screening FGFR4 Kinase Activity Inhibitory Molecule:
The final concentration of FGFR4 kinase in the reaction system was 3.85 nM, the final concentration of ATP was 100 μM, the final concentration of substrate ULight™-labeled JAK-1 (Tyr1023) Peptide was 100 nM, and the time for enzymatic reaction was 2 hours.
The highest final concentration of the compound in the reaction system was 2.5 μM. After serial 3-fold dilution, there were 11 concentrations in total, and the lowest final concentration was 0.042 nM. The final concentration of DMSO was 1%.

[2] = biological target: FGFR4 V550L kinase (Homo sapiens, UniProt P22455, V550L); assay: Inhibition of FGFR4 V550L mutant kinase activity (ULight-labeled PolyGT, EU665/EU615 reading); format: biochemical; conditions: FGFR4 V550L kinase 1 nM, ATP 10 μM, enzymatic reaction 2 hours
Chain of FGFR4 V550L kinase (P22455 22-802 V550L): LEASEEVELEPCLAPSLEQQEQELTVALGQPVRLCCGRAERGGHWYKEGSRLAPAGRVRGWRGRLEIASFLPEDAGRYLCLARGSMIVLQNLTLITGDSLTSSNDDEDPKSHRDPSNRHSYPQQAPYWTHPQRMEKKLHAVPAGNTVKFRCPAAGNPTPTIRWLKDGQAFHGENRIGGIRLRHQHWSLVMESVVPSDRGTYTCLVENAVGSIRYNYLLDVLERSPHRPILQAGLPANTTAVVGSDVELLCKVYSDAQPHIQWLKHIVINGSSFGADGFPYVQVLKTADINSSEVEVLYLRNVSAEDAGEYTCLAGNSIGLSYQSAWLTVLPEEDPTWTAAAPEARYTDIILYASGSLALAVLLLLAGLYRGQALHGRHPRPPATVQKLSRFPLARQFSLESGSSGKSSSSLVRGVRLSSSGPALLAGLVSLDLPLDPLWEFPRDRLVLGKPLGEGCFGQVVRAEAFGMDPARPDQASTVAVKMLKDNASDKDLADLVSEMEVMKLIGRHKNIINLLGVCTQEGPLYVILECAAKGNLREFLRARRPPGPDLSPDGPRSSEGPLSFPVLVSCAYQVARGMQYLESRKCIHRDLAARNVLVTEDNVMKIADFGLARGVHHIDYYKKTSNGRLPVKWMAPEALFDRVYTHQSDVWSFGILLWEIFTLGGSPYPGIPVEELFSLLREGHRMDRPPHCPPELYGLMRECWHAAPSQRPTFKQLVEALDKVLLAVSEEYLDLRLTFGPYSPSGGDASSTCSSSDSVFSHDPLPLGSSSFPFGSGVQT
Method: as §1, §2, §3, §4, §5, §6, §7, §8, §9, §10, §11, §12, §13, §14, §15, §16
Assay Conditions for Screening FGFR4 V550L Kinase Activity Inhibitory Molecule:
The final concentration of FGFR4 V550L kinase in the reaction system was 1 nM, the final concentration of ATP was 10 μM, the final concentration of substrate ULight™-labeled PolyGT was 100 nM, and the time for enzymatic reaction was 2 hours.
The highest final concentration of the compound in the reaction system was 2.5 μM. After seral 3-fold dilution, there were 11 concentrations in total, and the lowest final concentration was 0.042 nM. The final concentration of DMSO was 1%.

[3] = biological target: T1, Ba/F3 ETV6-FGFR4 cells (Homo sapiens, UniProt P22455); assay: Inhibition of cell proliferation (CCK-8), Ba/F3 ETV6-FGFR4 cells; format: cell-based; conditions: 72 hours of incubation, read-out: Ba/F3 ETV6-FGFR4 IC50
T1 construct: fused on or other part: N-terminal part of ETV6 (TEL), the oligomerising partner that makes the FGFR4 kinase constitutively active; P41212 (Transcription factor ETV6)
T1 sequence (P22455 whole entry, change not shown, the tested form may be a part): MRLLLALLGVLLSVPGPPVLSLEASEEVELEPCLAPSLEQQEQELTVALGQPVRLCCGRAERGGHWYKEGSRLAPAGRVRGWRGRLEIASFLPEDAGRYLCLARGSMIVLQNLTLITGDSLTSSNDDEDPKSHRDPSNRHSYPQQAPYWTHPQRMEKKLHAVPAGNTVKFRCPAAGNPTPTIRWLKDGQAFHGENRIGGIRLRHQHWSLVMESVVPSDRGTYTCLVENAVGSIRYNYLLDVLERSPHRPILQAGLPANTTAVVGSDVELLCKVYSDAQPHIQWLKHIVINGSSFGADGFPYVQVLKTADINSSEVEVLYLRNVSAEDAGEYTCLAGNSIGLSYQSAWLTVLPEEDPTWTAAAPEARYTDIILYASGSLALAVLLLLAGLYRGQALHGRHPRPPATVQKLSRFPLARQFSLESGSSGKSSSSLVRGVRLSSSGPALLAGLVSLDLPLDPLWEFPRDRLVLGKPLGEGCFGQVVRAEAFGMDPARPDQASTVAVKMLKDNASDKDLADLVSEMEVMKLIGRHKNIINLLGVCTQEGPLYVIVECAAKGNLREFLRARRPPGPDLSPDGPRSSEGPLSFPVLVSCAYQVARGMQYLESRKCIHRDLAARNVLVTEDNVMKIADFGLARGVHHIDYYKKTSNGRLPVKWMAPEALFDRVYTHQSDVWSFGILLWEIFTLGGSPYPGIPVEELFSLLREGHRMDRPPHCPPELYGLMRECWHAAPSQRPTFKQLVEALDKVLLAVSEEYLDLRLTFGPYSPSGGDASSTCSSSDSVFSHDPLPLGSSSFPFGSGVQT
Method: (§17) Compounds were assayed for inhibiting cell proliferation, and the specific method was as follows: • 1. Cells were cultured to a logarithmic growth phase, pipetted evenly, transferred to a 15 mL centrifuge tube, and centrifuged at 1000 rpm at room temperature for 4 minutes; • 2. The supernatant was discarded; 5 mL of complete medium was added and pipetted evenly; 10 μL of cell suspension was weighed, mixed well with 10 μL of 0.4% trypan blue, and counted under a cell counter; the proportion of living cells was ensured to be above 90%; • 3. The cell suspension was seeded into a 96-well plate (80 μL of cell suspension per well) according to the conditions shown in Table 5; in the outer 36 wells of the 96-well plate, no cells were added but only sterile water was added; only the inner 60 wells were used for cell assay and control; • 4. 5× compound dilution: the compounds were serially diluted 4-fold to give a total of 9 concentrations; 80-fold overall dilution was completed with complete medium, the resulting concentration was 5 times the final drug concentration, and DMSO concentration was 1.25%; • 5. 20 μL of the corresponding compounds with different concentrations were added to each well of assay wells of the 96-well plate; 20 μL of complete medium was added to positive and negative control wells and shaken well; and the final concentration of DMSO in each well was 0.25%; • 6. After 72 hours of incubation, 10 μL of CCK-8 reagent was added to each well and further incubated at 37° C. for 1-2 hours; and the OD value was read at 450 nm; 7. Cell survival rate (%)=[(As−Ab)/(Ac−Ab)]*100% • As: Assay well (medium containing cells, CCK-8, compound) • Ac: Control well (medium containing cells, CCK-8) • Ab: Blank well (medium without cell and compound, CCK-8) • 8. The values were imported into Graphpad Prism 5 software for IC50 calculation.

[4] = biological target: T2, Ba/F3 ETV6-FGFR4-V550L cells (Homo sapiens, UniProt P22455, V550L, cells depend on it); assay: Inhibition of cell proliferation (CCK-8), Ba/F3 ETV6-FGFR4-V550L cells; format: cell-based; conditions: 72 hours of incubation, read-out: Ba/F3 ETV6-FGFR4-V550L IC50
T2 construct: fused on or other part: N-terminal part of ETV6 (TEL), the oligomerising partner of the fusion; already named as the first entry; P41212 (Transcription factor ETV6)
T2 sequence (P22455 whole entry V550L, the tested form may be a part): as the sequence (P22455 whole entry, change not shown, the tested form may be a part) above, with V550L counted along it
Method: as §17

Chain of FGFR4 kinase (P22455 22-802): as the sequence (P22455 22-802 V550L) above, with L529V counted along it

SMILES	IC50 [1] [nM]	IC50 [2] [nM]	GI50 [3] [nM]	GI50 [4] [nM]
C=CC(=O)Nc1cc(N2CCN(CC)CC2)ccc1Nc1ncc(C#N)c(Nc2ccc(C(F)(F)F)cc2OC(C)C)n1 [Example 34, N-(2-((5-cyano-4-((2-isopropoxy-4-(trifluoromethyl)phenyl)amino)pyrimidin-2-yl)amino)-5-(4-ethylpiperazin-1-yl)phenyl) acrylamide]	50 to 100	10 to 50	10 to 50	10 to 50
C=CC(=O)Nc1cc(N2CCN(CC)CC2)ccc1Nc1ncc(C#N)c(Nc2ccc(S(C)(=O)=O)cc2OC(C)C)n1 [Example 35, N-(2-((5-cyano-4-((2-isopropoxy-4-(methylsulfonyl)phenyl)amino)pyrimidin-2-yl)amino)-5-(4-ethylpiperazin-1-yl)phenyl) acrylamide]	10 to 50	10 to 50	10 to 50	10 to 50
C=CC(=O)Nc1cc(N2CCN(CC)CC2)ccc1Nc1ncc(C#N)c(Nc2ccc(C3CC3)cc2OC(C)C)n1 [Example 36, N-(2-((5-cyano-4-((4-cyclopropyl-2-isopropoxyphenyl)amino)pyrimidin-2-yl)amino)-5-(4-ethylpiperazin-1-yl)phenyl) acrylamide]	10 to 50	10 to 50	10 to 50	10 to 50
C=CC(=O)Nc1cc(N2CCN(C(C)C)CC2)ccc1Nc1ncc(C#N)c(Nc2ccccc2OC(C)C)n1 [Example 37, N-(2-((5-cyano-4-((2-isopropoxyphenyl)amino)pyrimidin-2-yl)amino)-5-(4-isopropylpiperazin-1-yl)phenyl) acrylamide]	≤ 10	≤ 10	≤ 10	≤ 10

Further lines, results first:

IC50 [1] [nM]	IC50 [2] [nM]	GI50 [3] [nM]	GI50 [4] [nM]	SMILES
≤ 10	≤ 10	100 to 1000	50 to 100	C=CC(=O)Nc1cc(N2CCN(CC)CC2)ccc1Nc1ncc(C#N)c(Nc2ccc(O)cc2OC(C)C)n1 [Example 28, N-(2-((5-cyano-4-((4-hydroxy-2-isopropoxyphenyl)amino)pyrimidin-2-yl)amino)-5-(4-ethylpiperazin-1-yl)phenyl) acrylamide]
10 to 50	10 to 50	≤ 10	≤ 10	C=CC(=O)Nc1cc(N2CCN(CC)CC2)ccc1Nc1ncc(C#N)c(Nc2ccc(Cl)cc2OC(C)C)n1 [Example 29, N-(2-((4-((4-chloro-2-isopropoxyphenyl)amino)-5-cyanopyrimidin-2-yl)amino)-5-(4-ethylpiperazin-1-yl)phenyl) acrylamide]
10 to 50	≤ 10	≤ 10	≤ 10	C=CC(=O)Nc1cc(N2CCN(CC)CC2)ccc1Nc1ncc(C#N)c(Nc2ccc(C)cc2OC(C)C)n1 [Example 30, N-(2-((5-cyano-4-((2-isopropoxy-4-methylphenyl)amino)pyrimidin-2-yl)amino)-5-(4-ethylpiperazin-1-yl)phenyl) acrylamide]
≤ 10	10 to 50	≤ 10	≤ 10	C=CC(=O)Nc1cc(N2CCN(CC)CC2)ccc1Nc1ncc(C#N)c(Nc2ccc(OC)cc2OC(C)C)n1 [Example 31, N-(2-((5-cyano-4-((2-isopropoxy-4-methoxyphenyl)amino)pyrimidin-2-yl)amino)-5-(4-ethylpiperazin-1-yl)phenyl) acrylamide]
≤ 10	10 to 50	≤ 10	≤ 10	C=CC(=O)Nc1cc(N2CCN(CC)CC2)ccc1Nc1ncc(C#N)c(Nc2ccc(OCCOC)cc2OC(C)C)n1 [Example 33, N-(2-((5-cyano-4-((2-isopropoxy-4-(2-methoxyethoxy)phenyl)amino)pyrimidin-2-yl)amino)-5-(4-ethylpiperazin-1-yl)phenyl) acrylamide]
50 to 100	50 to 100	10 to 50	10 to 50	C=CC(=O)Nc1cc(N2CCN(CC)CC2)ccc1Nc1ncc(C#N)c(Nc2ccc(CCC)cc2OC(C)C)n1 [Example 38, N-(2-((5-cyano-4-((2-isopropoxy-4-propylphenyl)amino)pyrimidin-2-yl)amino)-5-(4-ethylpiperazin-1-yl)phenyl) acrylamide]
